Our source for the IC50 values is patent publication US10233173B2, “Substituted 1,2,3-triazoles as NR2B-selective NMDA modulators” (JANSSEN PHARMACEUTICA NV, priority 2016, dated 2019).

SMILES strings stand for the structures.

human GluN1/GluN2B NMDA receptors, sequence (Q13224 27-1484, other chains not shown): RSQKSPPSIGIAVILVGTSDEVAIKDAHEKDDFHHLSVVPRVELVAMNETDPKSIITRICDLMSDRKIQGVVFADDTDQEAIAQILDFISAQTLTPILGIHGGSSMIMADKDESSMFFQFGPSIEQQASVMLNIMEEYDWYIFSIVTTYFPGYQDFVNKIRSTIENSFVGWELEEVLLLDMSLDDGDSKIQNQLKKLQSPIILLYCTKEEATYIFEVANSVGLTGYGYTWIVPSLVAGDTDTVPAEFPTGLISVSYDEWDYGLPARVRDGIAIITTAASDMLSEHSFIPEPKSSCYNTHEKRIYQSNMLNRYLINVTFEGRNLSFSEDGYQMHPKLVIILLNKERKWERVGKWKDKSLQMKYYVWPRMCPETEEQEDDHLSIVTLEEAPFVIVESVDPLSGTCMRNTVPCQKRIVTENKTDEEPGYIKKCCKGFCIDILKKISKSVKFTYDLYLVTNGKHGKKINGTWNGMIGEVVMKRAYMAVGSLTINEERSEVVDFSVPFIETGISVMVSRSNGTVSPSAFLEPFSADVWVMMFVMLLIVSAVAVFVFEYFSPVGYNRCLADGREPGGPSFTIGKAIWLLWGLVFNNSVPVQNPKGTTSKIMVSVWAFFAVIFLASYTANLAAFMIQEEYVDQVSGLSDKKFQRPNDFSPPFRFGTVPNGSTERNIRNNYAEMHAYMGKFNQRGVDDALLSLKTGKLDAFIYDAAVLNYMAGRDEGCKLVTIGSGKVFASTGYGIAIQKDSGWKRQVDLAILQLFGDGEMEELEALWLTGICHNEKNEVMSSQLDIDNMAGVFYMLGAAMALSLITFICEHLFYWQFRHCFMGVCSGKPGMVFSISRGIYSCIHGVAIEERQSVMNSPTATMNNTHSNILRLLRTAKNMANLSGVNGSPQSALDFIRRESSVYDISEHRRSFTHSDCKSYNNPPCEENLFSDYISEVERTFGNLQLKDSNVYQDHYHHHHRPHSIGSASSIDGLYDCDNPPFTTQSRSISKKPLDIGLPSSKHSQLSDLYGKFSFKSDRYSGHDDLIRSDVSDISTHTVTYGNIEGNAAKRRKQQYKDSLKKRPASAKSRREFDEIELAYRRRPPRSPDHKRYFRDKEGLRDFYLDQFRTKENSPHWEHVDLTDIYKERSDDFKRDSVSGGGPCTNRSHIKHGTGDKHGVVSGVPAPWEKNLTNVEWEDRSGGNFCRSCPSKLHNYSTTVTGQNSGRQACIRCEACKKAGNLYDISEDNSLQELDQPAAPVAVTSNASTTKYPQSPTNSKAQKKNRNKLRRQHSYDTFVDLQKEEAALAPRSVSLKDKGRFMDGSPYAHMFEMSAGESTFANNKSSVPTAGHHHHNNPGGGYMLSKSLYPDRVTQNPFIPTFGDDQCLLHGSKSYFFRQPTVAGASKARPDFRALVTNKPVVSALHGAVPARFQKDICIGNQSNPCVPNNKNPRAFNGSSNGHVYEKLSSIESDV

For one experiment, the target named is human GluN1/GluN2B NMDA receptors (Homo sapiens, UniProt Q05586+Q13224). The experiment can be described thus: Cell-based calcium flux (FLIPR) assay on cloned human NR1/NR2B ion channels expressed in mammalian cells. The settings on record: standard assay; glutamate at ~EC80; FLIPR calcium flux. The protocol:
Effects of Test Articles on Cloned Human NR1/NR2B Ion Channels Expressed in Mammalian Cells
NMDA receptors are ion channels that are highly permeable to Ca^2+ ions, rendering it possible to monitor NMDA receptor function using cell-based calcium flux assay. In this assay, co-agonists glutamate and glycine are added to cells heterologously expressing human GluN1/GluN2B NMDA receptors to initiate cellular Ca^2+ influx. The time course of the changes in intracellular calcium is measured using a fluorescent dye and a FLIPR (Fluorometric Imaging Plate Reader) device.
Twenty four hours before measurements, the expression of the NMDA receptors in the stable cell line is induced with Tet-On inducible system in the presence of a non-selective NMDA receptor blocker. On the day of the experiment, cell culture media is carefully washed and the cells are loaded with Calcium 5 Dye Kit (Molecular Devices) in dye loading buffer containing 149 mM NaCl, 4 mM KCl, 2 mM CaCl2, and 1.5 mM MgCl2, 10 mM HEPES and 5 mM D-glucose; pH 7.4. After 1 h incubation at the room temperature, the dye is washed away with the assay buffer (149 mM NaCl (standard assay) or 150 mM (HTS assay), 4 mM KCl (standard assay) or 3 mM (HTS assay), 2 mM CaCl2, 0.01 mM EDTA, 10 mM HEPES and 5 mM D-glucose; pH 7.4) In the FLIPR TETRA reader, various concentrations of the test compounds are added to the cells for 5 min while fluorescence is monitored to detect potential agonist activity. Next, co-agonists, glutamate and glycine are added for another 5 minutes. The concentration of glutamate corresponding to ˜EC80 (standard assay) or EC40 (HTS assay) is used to maximize the assay's signal window or the ability to detect NMDA receptor antagonists and negative allosteric modulators, respectively. A saturating concentration (10 μM) of glycine is also present in the assay. […] The fluorescent signal in the presence of test compounds is quantified and normalized to the signal defined by the appropriate control wells.
For `CC(O)(c1cnc(OCc2cn(-c3ccc(F)c(C(F)F)c3)nn2)nc1)C(F)(F)F` (racemic) [Example 404, (R/S)-2-[2-[[1-[3-(Difluoromethyl)-4-fluoro-phenyl]triazol-4-yl]methoxy]pyrimidin-5-yl]-1,1,1-trifluoro-propan-2-ol], the IC50 is 0.482 µM.

As for `CNc1nc(OCc2cn(-c3ccc(F)c(C(C)(F)F)c3)nn2)ncc1F` [Example 578, 2-[[1-[3-(1,1-Difluoroethyl)-4-fluoro-phenyl]triazol-4-yl]methoxy]-5-fluoro-N-methyl-pyrimidin-4-amine], the IC50 worked out at 0.14 µM.

For the compound `Fc1cnc(OCc2cn(-c3ccc(F)c(OC(F)F)c3)nn2)nc1` [Example 492, 2-[[1-[3-(Difluoromethoxy)-4-fluoro-phenyl]triazol-4-yl]methoxy]-5-fluoro-pyrimidine], the IC50 was found to be 0.026 µM.

Turning to `FC(F)(F)c1cnc(OCc2cn(-c3ccc(C(F)(F)F)s3)nn2)nc1` [Example 670, 5-(Trifluoromethyl)-2-((1-(5-(trifluoromethyl)thiophen-2-yl)-1H-1,2,3-triazol-4-yl)methoxy)pyrimidine], the half-maximal inhibitory concentration (IC50) was 0.063 µM.

Consider `Cc1cnc(OCc2cn(-c3ccc(F)c(C(C)(F)F)c3)nn2)nc1N` [Example 576, 2-[[1-[3-(1,1-Difluoroethyl)-4-fluoro-phenyl]triazol-4-yl]methoxy]-5-methyl-pyrimidin-4-amine], for which the concentration for half-maximal inhibition (IC50) is 0.017 µM.

As for `CC(F)(F)c1cc(-n2cc(COc3ncc(CO)cn3)nn2)ccc1Cl` [Example 533, [2-[[1-[4-Chloro-3-(1,1-difluoroethyl)phenyl]triazol-4-yl]methoxy]pyrimidin-5-yl]methanol], the IC50 is 0.017 µM.

As for `CC(C)(O)c1cnc(OCc2cn(-c3ccc(F)c(C(C)(F)F)c3)nn2)nc1` [Example 566, 2-[2-[[1-[3-(1,1-Difluoroethyl)-4-fluoro-phenyl]triazol-4-yl]methoxy]pyrimidin-5-yl]propan-2-ol], the 50% inhibitory concentration (IC50) turned out to be 0.008 µM.

`CC(F)(F)c1cc(-n2cc(COc3ncc(C(F)(F)F)cn3)nn2)ccc1Cl` [Example 537, 2-[[1-[4-Chloro-3-(1,1-difluoroethyl)phenyl]triazol-4-yl]methoxy]-5-(trifluoromethyl)pyrimidine]: the IC50 was found to be 0.016 µM.

Consider `Fc1ccc(-n2cc(COc3ncc(N4CCC(F)(F)C4)cn3)nn2)cc1C(F)F` [Example 422, 2-((1-(3-(Difluoromethyl)-4-fluorophenyl)-1H-1,2,3-triazol-4-yl)methoxy)-5-(3,3-difluoropyrrolidin-1-yl)pyrimidine], for which the IC50 is 0.068 µM.

In the case of `CC(O)c1cnc(OCc2cn(-c3ccc(F)c(C(F)(F)F)c3)nn2)nc1` (racemic) [Example 448, (R/S)-1-[2-[[1-[4-Fluoro-3-(trifluoromethyl)phenyl]triazol-4-yl]methoxy]pyrimidin-5-yl]ethanol], the half-inhibitory concentration (IC50) is 0.031 µM.

For the compound `Cc1cnc(OCc2cn(-c3cccc(F)c3C)nn2)nc1` [Example 464, 2-[[1-(3-Fluoro-2-methyl-phenyl)triazol-4-yl]methoxy]-5-methyl-pyrimidine], the IC50 was determined as 0.515 µM.

Regarding `FC(F)c1cc(-n2cc(COc3nccc(C4CC4)n3)nn2)ccc1Cl` [Example 631, 2-[[1-[4-Chloro-3-(difluoromethyl)phenyl]triazol-4-yl]methoxy]-4-cyclopropyl-pyrimidine], the IC50 stood at 0.042 µM.

Turning to `CCNc1ccnc(OCc2cn(-c3ccc(F)c(OC(F)F)c3)nn2)n1` [Example 504, 2-((1-(3-(Difluoromethoxy)-4-fluorophenyl)-1H-1,2,3-triazol-4-yl)methoxy)-N-ethylpyrimidin-4-amine], the half-maximal inhibitory concentration (IC50) was determined as 0.007 µM.

Regarding `CC(C)(O)c1cnc(OCc2cn(-c3ccc(Cl)c(C(C)(F)F)c3)nn2)nc1` [Example 532, 2-[2-[[1-[4-Chloro-3-(1,1-difluoroethyl)phenyl]triazol-4-yl]methoxy]pyrimidin-5-yl]propan-2-ol], the half-inhibitory concentration (IC50) was 0.081 µM.

On to `Cc1cnc(OCc2cn(-c3ccc(F)c(OC(F)F)c3)nn2)nc1N` [Example 514, 2-[[1-[3-(Difluoromethoxy)-4-fluoro-phenyl]triazol-4-yl]methoxy]-5-methyl-pyrimidin-4-amine], for which the IC50 turned out to be 0.005 µM.

Still in this experiment, the particulars now being: standard assay; human GluN1/GluN2B, calcium flux (FLIPR), glutamate ~EC80.
For `Cc1cnc(NCc2cn(-c3ccc(F)c(C(F)F)c3)nn2)nc1` [Example 211, N-[[1-[3-(Difluoromethyl)-4-fluoro-phenyl]triazol-4-yl]methyl]-5-methyl-pyrimidin-2-amine], the 50% inhibitory concentration (IC50) is 0.049 µM.

In the case of `FC(F)c1cccc(-n2cc(COc3ncc(Cl)cn3)nn2)c1` [Example 92, 5-Chloro-2-[[1-[3-(difluoromethyl)phenyl]triazol-4-yl]methoxy]pyrimidine], the IC50 was 0.019 µM.

Regarding `FC(F)c1cccc(-n2cc(CNc3ncccn3)nn2)c1` [Example 6], the half-maximal inhibitory concentration (IC50) came to 10.6 µM.

As to `Fc1ccc(-n2cc(CNc3ncccn3)nn2)cc1C(F)(F)F` [Example 3, N-[[1-[4-Fluoro-3-(trifluoromethyl)phenyl]triazol-4-yl]methyl]pyrimidin-2-amine], the IC50 was determined as 2.8 µM.

Turning to `FC(F)c1cnc(OCc2cn(-c3cccc(C(F)F)c3)nn2)nc1` [Example 273, 5-(Difluoromethyl)-2-[[1-[3-(difluoromethyl)phenyl]triazol-4-yl]methoxy]pyrimidine], the IC50 is 0.027 µM.

Turning to `COc1ccnc(OCc2cn(-c3ccc(Cl)c(OC(F)F)c3)nn2)n1` [Example 29, 2-[[1-[4-Chloro-3-(difluoromethoxy)phenyl]triazol-4-yl]methoxy]-4-methoxy-pyrimidine], the IC50 was 0.011 µM.

`FCCOc1cnc(OCc2cn(-c3ccc(Cl)c(OC(F)F)c3)nn2)nc1` [Example 192, 2-[[1-[4-Chloro-3-(difluoromethoxy)phenyl]triazol-4-yl]methoxy]-5-(2-fluoroethoxy)pyrimidine]: the IC50 came out at 0.03 µM.

On to `FC(F)c1cccc(-n2cc(COc3ncc(C4CC4)cn3)nn2)c1` [Example 282, 5-Cyclopropyl-2-[[1-[3-(difluoromethyl)phenyl]triazol-4-yl]methoxy]pyrimidine], for which the IC50 was 0.011 µM.

Turning to `Cc1cnc(OCc2cn(-c3cccc(OC(F)F)c3)nn2)nc1` [Example 327, 2-[[1-[3-(Difluoromethoxy)phenyl]triazol-4-yl]methoxy]-5-methyl-pyrimidine], the 50% inhibitory concentration (IC50) is 0.015 µM.

Consider `CNc1nc(OCc2cn(-c3ccc(Cl)c(OC(F)F)c3)nn2)ncc1F` [Example 389, 2-[[1-[4-Chloro-3-(difluoromethoxy)phenyl]triazol-4-yl]methoxy]-5-fluoro-N-methyl-pyrimidin-4-amine], for which the concentration for half-maximal inhibition (IC50) was 0.033 µM.

Turning to `Fc1ccc(-n2cc(COc3ncccn3)nn2)cc1C(F)F` [Example 25, 2-((1-(3-(difluoromethyl)-4-fluorophenyl)-1H-1,2,3-triazol-4-yl)methoxy)pyrimidine], the IC50 was found to be 0.05 µM.

For the compound `Fc1ccc(-n2cc(COc3ccccn3)nn2)cc1C(F)(F)F` [Example 158, 2-[[1-[4-Fluoro-3-(trifluoromethyl)phenyl]triazol-4-yl]methoxy]pyridine], the 50% inhibitory concentration (IC50) turned out to be 3.04 µM.

Consider `FC(F)c1cc(-n2cc(COc3ccncn3)nn2)ccc1Cl` [Example 12, 4-[[1-[4-Chloro-3-(difluoromethyl)phenyl]triazol-4-yl]methoxy]pyrimidine], for which the IC50 worked out at 2.23 µM.

Regarding `Cc1ccccc1-n1cc(COc2ncc(F)cn2)nn1` [Example 237, 5-Fluoro-2-[[1-(o-tolyl)triazol-4-yl]methoxy]pyrimidine], the IC50 turned out to be 16.6 µM.

Regarding `Fc1ccc(-n2cc(COc3ncc(N4CCC4)cn3)nn2)cc1OC(F)F` [Example 165, 5-(Azetidin-1-yl)-2-[[1-[3-(difluoromethoxy)-4-fluoro-phenyl]triazol-4-yl]methoxy]pyrimidine], the 50% inhibitory concentration (IC50) turned out to be 0.016 µM.

On to `C[C@@H](Oc1ncccn1)c1cn(-c2ccc(Cl)c(OC(F)F)c2)nn1` [Example 374, 2-[(1R)-1-[1-[4-Chloro-3-(difluoromethoxy)phenyl]triazol-4-yl]ethoxy]pyrimidine], for which the concentration for half-maximal inhibition (IC50) is 0.011 µM.

For the compound `Cc1ccnc(OCc2cn(-c3ccc(F)c(C(F)F)c3)nn2)n1` [Example 52, 2-[[1-[3-(Difluoromethyl)-4-fluoro-phenyl]triazol-4-yl]methoxy]-4-methyl-pyrimidine], the 50% inhibitory concentration (IC50) was 0.008 µM.

As to `Cc1cnc(OCc2cn(-c3ccc(C(F)(F)F)s3)nn2)nc1` [Example 120, 5-Methyl-2-((1-(5-(trifluoromethyl)thiophen-2-yl)-1H-1,2,3-triazol-4-yl)methoxy)pyrimidine], the 50% inhibitory concentration (IC50) is 0.005 µM.

Consider `OCc1ccnc(OCc2cn(-c3ccc(Cl)c(OC(F)F)c3)nn2)n1` [Example 383, [2-[[1-[4-Chloro-3-(difluoromethoxy)phenyl]triazol-4-yl]methoxy]pyrimidin-4-yl]methanol], for which the IC50 was found to be 0.008 µM.
